According to patent publication US20080293802A1, “Chemical Compounds” (Smithline Beecham Corporation, priority 2005, published 2008):

Target: T1, Recombinant human IKKβ (IKK2) (Homo sapiens, UniProt O14920)
T1 construct: Recombinant human IKKβ (residues 1-737); GST (C); made in house
T1 sequence (O14920 1-737): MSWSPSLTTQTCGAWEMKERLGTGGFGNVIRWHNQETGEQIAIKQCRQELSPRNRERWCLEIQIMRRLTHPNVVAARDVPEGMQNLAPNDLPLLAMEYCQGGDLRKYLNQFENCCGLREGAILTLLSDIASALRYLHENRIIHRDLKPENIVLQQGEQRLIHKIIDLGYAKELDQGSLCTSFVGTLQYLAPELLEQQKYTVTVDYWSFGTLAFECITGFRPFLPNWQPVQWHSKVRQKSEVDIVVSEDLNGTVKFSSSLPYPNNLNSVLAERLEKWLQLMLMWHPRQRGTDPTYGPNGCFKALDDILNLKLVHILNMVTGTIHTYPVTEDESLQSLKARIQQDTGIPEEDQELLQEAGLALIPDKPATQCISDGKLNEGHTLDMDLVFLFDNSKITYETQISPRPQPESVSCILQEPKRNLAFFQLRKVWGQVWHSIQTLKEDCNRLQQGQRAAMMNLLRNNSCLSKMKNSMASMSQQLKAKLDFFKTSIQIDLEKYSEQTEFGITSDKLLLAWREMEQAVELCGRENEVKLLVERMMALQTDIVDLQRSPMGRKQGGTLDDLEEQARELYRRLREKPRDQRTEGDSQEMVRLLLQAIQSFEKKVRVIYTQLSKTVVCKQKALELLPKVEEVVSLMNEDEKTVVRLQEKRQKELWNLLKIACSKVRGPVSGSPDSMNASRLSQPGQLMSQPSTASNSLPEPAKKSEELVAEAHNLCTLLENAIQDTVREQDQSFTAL
Experiment: IKK2 Assay (TR-FRET, phosphorylation of GST-IκBα)
Assay type: biochemical
Conditions: recombinant human IKKβ (residues 1-737), 5 nM; GST-IκBα 25 nM, ATP 1 μM; 30 minutes at room temperature; read-out: pIC50 against IKK2 (converted)
Method: Recombinant human IKKβ (residues 1-737) was expressed in baculovirus as a C-terminal GST-tagged fusion protein, and its activity was assessed using a time-resolved fluorescence resonance energy transfer (TR-FRET) assay. Briefly, IKK2 (5 nM final) diluted in assay buffer (50 mM HEPES, 10 mM MgCl2, 1 mM CHAPS pH 7.4 with 1 mM DTT and 0.01% w/v BSA) was added to wells containing various concentrations of compound or DMSO vehicle (3% final). The reaction was initiated by the addition of GST-IκBα substrate (25 nM final)/ATP (1 μM final), in a total volume of 30 μl. The reaction was incubated for 30 minutes at room temperature, then terminated by the addition of 15 μl of 50 mM EDTA. Detection reagent (15 μl) in buffer (100 mM HEPES pH 7.4, 150 mM NaCl and 0.1% w/v BSA) containing antiphosphoserine-IκBα-32/36 monoclonal antibody 12C2 (Cell Signalling Technology, Beverly Mass., USA) labelled with W-1024 europium chelate (Wallac OY, Turku, Finland), and an APC-labelled anti-GST antibody (Prozyme, San Leandro, Calif., USA) was added and the reaction was further incubated for 60 minutes at room temperature. The degree of phosphorylation of GST-IκBα was measured using a Packard Discovery plate reader (Perkin-Elmer Life Sciences, Pangbourne, UK) as a ratio of specific 665 nm energy transfer signal to reference europium 620 nm signal.

SMILES	IC50
Cc1cc2cc(-c3ccccc3)cc(C(N)=O)c2[nH]1 [Example 1, 2-methyl-5-phenyl-1H-indole-7-carboamide]	≤ 10 µM
NC(=O)c1cc2cc(-c3ccccc3)cc(C(N)=O)c2[nH]1 [Example 2, 5-phenyl-1H-indole-2,7-dicarboxamide]	≤ 10 µM
